The source of these data is patent US10653657B2, “Method for treating hemolytic uremic syndrome” (ENZYCHEM LIFESCIENCES CORPORATION, priority 2015, dated 2020).

The subject of data set [1] is C3. The experiment in a line: C3 in culture supernatant of HepG2 cells by ELISA. In kind it is cell-based, human. Particulars: PLAG 1 to 100 μg/ml; IL-4 and TNF-α 1 hr, then 18 hr at 37° C. As for the experimental part: (§1) The incubated HepG2 cell lines are treated with PLAG (1˜100 μg/ml), followed by IL-4 and TNF-α, reacted for 1 hour, incubated for 18 hours at 37° C. and the supernatant is isolated. Quantitation of the amount of C3 in the cellular culture medium (supernatant) from HepG2 cells is performed by ELISA using a commercially available monoclonal antibody (mAb, R&D Systems) and the manufacture's protocol; the results are presented in FIGS. 3A-3C. C3 is expressed spontaneously under in vitro culture conditions using 10% FCS added to HepG2 cells incubated for 12 hr. The cells are treated with different doses of PLAG from 1 to 100 μg/ml (FIG. 3A, FIG. 3B) or 10 and 100 μg/ml of S6I (FIG. 3C), reacted with IL-4 and TNF-α for 1 hr and then incubated for 18 hr at 37° C. Cellular viability is confirmed using the WST-1 assay (FIG. 3A).
(In general: In an ELISA, binding on a coated surface is turned into a signal by an enzyme label.)

For data set [2], the system named is STAT1. Put plainly: STAT1 transcriptional activity (luciferase) in gene transfected HepG2 cells. The conditions noted are these: 10 ng IFN-γ, PLAG 0.01-10 μg/ml, 12 hour incubation. The data set is classed as cell-based, human. As for the experimental part: (§2) By using STAT6 inhibitor (S6I), it is confirmed that the reduction of complement 3 in HepG2 cells (human hepatocyte cell line) is regulated by STAT6. […] It is also confirmed that PLAG has selective efficacy on STAT6 over STAT1. FIG. 1 presents graphs showing STAT1 and STAT6 transcriptional activity in the PLAG treated HepG2 cells. NC refers to the unstimulated control cell. For the STAT1 assay, gene transfected HepG2 (human hepatocyte cell line) is treated with 10 ng of IFN-γ and serially diluted PLAG is added (0.01 μg/ml, 0.1 μg/ml, 1 μg/ml, and 10 μg/ml as shown) to see its effect on gene expression in the stimulated cell. For the STAT6 assay, gene transfected HepG2 cells are treated with 10 ng of IL-4 and again serially diluted PLAG is added (0.01 μg/ml, 0.1 μg/ml, 1 μg/ml, and 10 μg/ml as shown) to see its effect on gene expression in the stimulated cell. The assay is carried out following a 12 hour incubation of treated cells.

The subject of data set [3] is HepG2 cells. Put plainly: WST-1 cell viability assay in HepG2 cells. In kind it is cell-based. Particulars: PLAG 1 to 100 μg/ml. How it is done: as §1
On the technique in general: Formazan colour is commonly taken as a measure of viable cells.

In data set [4] the test system is STAT6. Put plainly: STAT6 transcriptional activity (luciferase) in gene transfected HepG2 cells. In kind it is cell-based, human. Particulars: 10 ng IL-4, PLAG 0.01-10 μg/ml, 12 hour incubation. As for the experimental part:
as §2

A short description of data set [5]: Colony forming units (CFUs) in spleen assay in heavily irradiated mice. In kind it is in vivo. Particulars: PLAG 50 mg/kg/d i.p. or p.o. How it is done:
Colony Forming Units (CFUs) in Spleen Assay in Vivo: In order to determine the in vivo effect of PLAG on the recovery of hematopoiesis, a CFUs assay is performed in heavily irradiated mice.

The target in data set [6] is T1, STAT6 (Homo sapiens, UniProt P42226).
T1 construct: endogenous in cells; host or cells: U937, A549, Jurkat
T1 sequence (P42226 1-847): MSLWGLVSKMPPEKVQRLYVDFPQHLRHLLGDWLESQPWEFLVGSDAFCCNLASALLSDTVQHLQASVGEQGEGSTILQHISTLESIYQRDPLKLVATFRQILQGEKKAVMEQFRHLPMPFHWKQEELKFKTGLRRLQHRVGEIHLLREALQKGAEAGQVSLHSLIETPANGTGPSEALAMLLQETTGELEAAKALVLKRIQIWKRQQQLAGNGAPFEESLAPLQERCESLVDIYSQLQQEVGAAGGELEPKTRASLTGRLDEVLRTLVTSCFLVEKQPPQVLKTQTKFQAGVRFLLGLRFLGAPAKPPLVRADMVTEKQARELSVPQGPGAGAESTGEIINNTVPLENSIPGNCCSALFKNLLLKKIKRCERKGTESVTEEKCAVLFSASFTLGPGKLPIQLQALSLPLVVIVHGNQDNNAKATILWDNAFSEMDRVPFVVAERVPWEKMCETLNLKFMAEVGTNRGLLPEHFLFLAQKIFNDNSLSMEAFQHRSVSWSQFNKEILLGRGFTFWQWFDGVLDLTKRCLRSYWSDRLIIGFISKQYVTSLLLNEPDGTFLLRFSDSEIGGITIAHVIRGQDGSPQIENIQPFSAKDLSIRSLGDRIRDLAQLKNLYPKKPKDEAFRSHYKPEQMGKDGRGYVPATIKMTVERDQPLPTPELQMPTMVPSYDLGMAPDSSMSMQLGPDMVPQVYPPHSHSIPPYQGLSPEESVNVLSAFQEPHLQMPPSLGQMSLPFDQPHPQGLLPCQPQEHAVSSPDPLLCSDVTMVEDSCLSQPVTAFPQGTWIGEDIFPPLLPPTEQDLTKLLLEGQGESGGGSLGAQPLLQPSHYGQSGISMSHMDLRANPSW
Put plainly: Dephosphorylation of STAT6 (Western blot, anti-phosphorylated STAT6) in IL-4 stimulated cells. The conditions noted are these: U937, Jurkat and A549 cells; PLAG 0.01 to 10 μg/ml; 10 ng/ml IL-4; 15 min after stimulation. In kind it is cell-based. As for the experimental part: Dephosphorylation of STAT6 is examined using anti-phosphorylated STAT6 in U937, A549, and Jurkat cell lysates treated with PLAG at a concentration of from 0.01 to 10 μg/ml. Phosphorylation of STAT6 is induced by treatment with 10 ng/ml of IL-4. Dephosphorylation of STAT1 is examined in the U937 cell lysate treated with PLAG (0.01 to 10 μg/ml). Phosphorylation of STAT1 is induced by 10 ng of IFN-γ treatment. Dephosphorylation of STAT1 and STAT6 is examined at 15 min after stimulation with IFN-γ and IL-4 respectively, in the PLAG pretreated cells. […] The transcriptional activity of STAT6 is decreased by the dephosphorylation of STAT6. […] No effect of PLAG on STAT1 phosphorylation is observed.
For orientation: Immunoblotting shows a protein as a band on a membrane.

In data set [7] the test system is C3. The experiment in a line: C3 inhibition in HMC-1 cells, ELISA of expressed protein. In kind it is cell-based, human. Particulars: PLAG 1, 10 and 100 μg/mL for 2 hours; activated 72 hours with 10% FBS. As for the experimental part: In a separate experiment, human mast cells (HMC-1, 1×10^5 cells/ml) are treated with PLAG at various concentrations (1, 10 and 100 μg/mL) for 2 hours. The cells are activated for 72 hours with 10% FBS (Fetal bovine serum)-containing IMDM. The decrease of C3 is confirmed by ELISA analysis of the expressed protein.

Data set [8] deals with complement 3. Put plainly: Complement 3 activation by chemotherapeutic agents in mouse model. The data set is classed as in vivo. The conditions noted are these: mice; PLAG 50 mg/kg daily 3 weeks with Gemcitabine, Cyclosphosphamide or Tamoxifen. As for the experimental part:
The effect of PLAG for treatment of chemotherapy-induced thrombocytopenia (CIT) is evaluated in an animal model. Anti-cancer agents (Gemcitabine 50 mg/kg, Cyclosphosphamide 100 mg/kg, or Tamoxifen 50 mg/kg) are dosed daily for 3 weeks; PLAG is also administered at a dose of 50 mg/kg daily for 3 weeks.
It is believed that the neutropenia and thrombocytopenia of these agents and other chemotherapeutic agents may be due at least in part to a specific complement-mediated toxicity. This is seen in FIG. 5.

In data set [9] the test system is C3. Put plainly: C3 mRNA expression in HepG2 cells by RT-PCR. The data set is classed as cell-based, human. How it is done: A liver cell line, HepG2 (American Type Culture Collection, ATCC, Rockville, Md.), is incubated and maintained at 37° C., 5% CO2 humid atmosphere in DMEM medium. When HepG2 cells, which are known to produce complement in culture, are treated with PLAG, the activity of complement is reduced effectively, as confirmed by RT-PCR of mRNA. In the RT-PCR, 5×10^5 HepG2 cells/ml are distributed into 12 well plates and induced C3 for 12 hours with 10% FCS. Then PLAG is added and further cultured for 2 hours. Cells are harvested and mRNA is isolated and RT-PCR is carried out with specific primers for C3; GAPDH is used as an internal control.

Data set [10] has as its system C3. The experiment in a line: C3 expression in HMC-1 cells induced with IL-4 and TNF-α (RT-PCR / blots). In kind it is cell-based, human. How it is done:
A blood cell line, HMC-1 (human mast cell, American Type Culture Collection, ATCC, Rockville, Md.) is incubated and maintained at 37° C. under 5% CO2 humid conditions. The medium is IMDM (Life Technologies, Karlsruhe, Germany) containing 10% Fetal Calf Serum (FCS, HyClone, Logan, Utah), 2 mM […], 100 μg/ml penicillin, 100 μg/ml streptomycin (Life Technologies). The cultured HMC-1 cells (1×10^6 cells/ml) are pre-treated with 0.1 and 1 μg/mL concentrations of PLAG, followed by treatment with IL-4 (5 ng) and/or TNF-α (10 ng) to induce cellular activities.
The expressed C3 and its mRNA level change are observed by using RT-PCR (Reverse Transcriptase Polymerase Chain Reaction). The RT-PCR is carried out as follows: the total RNA is separated by the standard protocol and cDNA is synthesized using AccuScript High Fidelity 1st Strand cDNA Synthesis Kit (Stratagene). Two-step RT-PCR reaction is conducted using Oligo-dT primer and reverse transcriptase, a pair of primers and Taq polymerase (Takara, Shiga, Japan). […] The product of PCR is separated using 1.5% agarose gel, dyed with ethidium bromide (EtBr), and visualized with Gel Doc 2000 UV trans-illuminator (Bio-Rad Laboratories, Hercules, Calif., USA), and the experimental data is analyzed using Quantity One software (Bio-Rad Laboratories).

Data set [11] deals with hematopoietic stem cells and megakaryocytes. Particulars: reported in WO 99/26640; cited from earlier work.

Turning to `CCCCC/C=C\C/C=C\CCCCCCCC(=O)OC(COC(C)=O)COC(=O)CCCCCCCCCCCCCCC` (racemic) [PLAG, 1-palmitoyl-2-linoleoyl-3-acetylglycerol], the “Expression of C3 (ELISA, HepG2 supernatant)” value in data set [1] is given as “decreased dose-dependently”. For the same compound, in [2], the “STAT1 expression (transcriptional activity, luciferase)” value is given as “no effect”. Also, in data set [3], the “Cellular propagation and death (WST-1 viability)” value is “does not affect”. In addition, in data set [4], the “STAT6 expression (transcriptional activity, luciferase)” value is “significant, dose-dependent effect”. In data set [5], the “Number of splenic nodules, primitive progenitor cells and megakaryocytes” value is reported as “marked increase”. Moreover, the “IL-4 treatment induced STAT6 phosphorylation” value in data set [6] was “inhibited with increasing PLAG concentrations”. Also, the “Decrease of C3 (ELISA) in HMC-1 cells” value in data set [7] is on record as “proportional to the concentration of PLAG”. Further, the “Complement 3 activation caused by chemotherapeutic agents” value in [8] is listed as “largely blocked”. Also, the “Inhibition of C3 expression (RT-PCR) in HepG2” value in data set [9] (PLAG 1 μg/ml, 2 hours, C3 induced 12 hours with 10% FCS) is “somewhat”; in data set [9] (PLAG 10 μg/ml, 2 hours, C3 induced 12 hours with 10% FCS), “entirely”. In addition, the “Expression of C3 in HMC-1 cells” value in data set [10] (pre-treated with 0.1 and 1 μg/mL PLAG, then IL-4 (5 ng) and TNF-α (10 ng)) is on record as “suppressed by PLAG on a concentration dependent basis”. Further, in [11], the “Growth-stimulating activities of hematopoietic stem cells and megakaryocytes” value is reported as “have growth-stimulating activities”.

`NC(=O)c1cnc(NCCc2ccc(O)c(Cl)c2)nc1NCc1ccccc1` [S6I, reference compound]: the “Inhibition of C3 expression (RT-PCR) in HepG2” value in data set [9] (S6I 10 and 100 μg/ml, compared with PLAG 1 and 10 μg/ml) is given as “comparable”. The “Expression of C3 in HMC-1 cells” value in [10] (IL-4 and TNF-α followed by S6I) is “comparable”.
